Usually IC50 stands for the concentration needed to halve the response being measured.

Bridge positions count the residues as written; N and C are the ends. Square brackets hold non-standard residues; d marks the D form. Peptide text beside a SMILES is read from it. * marks the point of attachment. Bip = N[C@@H](Cc1ccc(-c2ccccc2)cc1)C(=O)O; Phe(3-Me) = Cc1cccc(C[C@H](N)C(=O)O)c1; Pro(4R-NH2) = N[C@H]1CN[C@H](C(=O)O)C1; NH(CH2)12COOH = O=C(O)CCCCCCCCCCCCN*; Val(3-OH) = CC(C)(O)[C@H](N)C(=O)O; hArg = N=C(N)NCCCC[C@H](N)C(=O)O; 4Pal = N[C@@H](Cc1ccncc1)C(=O)O; Aad = N[C@@H](CCCC(=O)O)C(=O)O; Cha = N[C@@H](CC1CCCCC1)C(=O)O; Cit = NC(=O)NCCC[C@H](N)C(=O)O; Cba = N[C@@H](CC1CCC1)C(=O)O; 12Ado = NCCCCCCCCCCCC(=O)O; Carboxymethyl = O=C(O)C*; Orn = NCCC[C@H](N)C(=O)O; Aun = NCCCCCCCCCCC(=O)O; Dab = NCC[C@H](N)C(=O)O; Dap = NC[C@H](N)C(=O)O; AEEA = NCCOCCOCC(=O)O

T1 sequence (Q15116 25-288): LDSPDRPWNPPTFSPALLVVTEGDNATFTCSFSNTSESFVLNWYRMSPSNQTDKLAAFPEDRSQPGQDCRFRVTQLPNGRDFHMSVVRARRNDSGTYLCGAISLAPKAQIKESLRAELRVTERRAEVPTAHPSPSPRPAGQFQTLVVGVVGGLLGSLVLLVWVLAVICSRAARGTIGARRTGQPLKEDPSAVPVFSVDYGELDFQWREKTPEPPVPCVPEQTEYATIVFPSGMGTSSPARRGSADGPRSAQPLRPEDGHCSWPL

This test concerns the target T1, PD-1/PD-L1 interaction (PE-labeled human PD-L1-Ig binding to Jurkat cell line over-expressing human PD-1) (Homo sapiens, UniProt Q15116).
T1 construct: expressed in transfected cells; host or cells: Jurkat
The test can be described thus: Jurkat-PD-1 Cell Binding High-Content Screening Assay (CBA). The format is cell-based. Particulars: Jurkat cell line over-expressing human PD-1; PE-labeled PD-L1-Ig 20 nM final; read-out: Jurkat hPD1-PDL1 IC50. The gist of the method: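 Binding of fluorescent PD-L1-Ig (phycoerythrin on Ig tag, 20 nM final, 1 h) measured by high-content imaging of fixed, Hoechst-counterstained Jurkat-hPD-1 cells. Compound added 2 h at 37° C beforehand, in DMEM with 10% fetal calf serum.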
Consider `CC(C)C[C@H]1NC(=O)[C@H](CCCN)NC(=O)[C@H](C(C)C)NC(=O)[C@H](Cc2ccc(-c3ccccc3)cc2)NC(=O)[C@H](C(C)C)NC(=O)[C@H](Cc2c[nH]c3ccccc23)NC(=O)[C@H](CC(=O)O)NC(=O)[C@H](Cc2ccc(OCC(=O)O)cc2)NC(=O)[C@H](CN)NC(=O)CSC[C@@H](C(=O)NCCOCCOCC(=O)NCCCCCCCCCCC(=O)O)NC(=O)[C@H]([C@@H](C)O)NC(=O)[C@H](C(C)C)NC(=O)[C@H](CC2CCCCC2)NC(=O)[C@H](Cc2cnc[nH]2)NC1=O` [Compound 1100] ({CH2CO}-[Dap]Y(Carboxymethyl)DWV[Bip]V[Orn][dL]H[Cha]VTC[AEEA][Aun]-OH; thioether N-14), for which the IC50 came out at 8.8 nM.

`CC(C)C[C@H]1NC(=O)[C@H](CCCN)NC(=O)[C@H](C(C)C)NC(=O)[C@H](Cc2ccc(-c3ccccc3)cc2)NC(=O)[C@H](C(C)C)NC(=O)[C@H](Cc2c[nH]c3ccccc23)NC(=O)[C@H](CC(=O)O)NC(=O)[C@H](Cc2ccc(OCC(=O)O)cc2)NC(=O)[C@H](CN)NC(=O)CSC[C@@H](C(=O)N[C@@H](CCCN)C(=O)NCCCCCCCCCCC(=O)O)NC(=O)[C@H](CCC(N)=O)NC(=O)[C@H](C(C)C)NC(=O)[C@H](CC2CCCCC2)NC(=O)[C@H](Cc2c[nH]cn2)NC1=O` [Compound 2794] ({CH2CO}-[Dap]Y(Carboxymethyl)DWV[Bip]V[Orn][dL]H[Cha]VQC[Orn][Aun]-OH; thioether N-14): the IC50 was 28 nM. In the case of `Cc1cccc(C[C@@H]2NC(=O)[C@H](CC(=O)O)NC(=O)[C@H](Cc3ccc(OCC(=O)O)cc3)NC(=O)[C@H](CN)NC(=O)CSC[C@@H](C(=O)N[C@@H](CCN)C(=O)NCCOCCOCC(=O)NCCCCCCCCCCC(=O)O)NC(=O)[C@H](CCC(=O)O)NC(=O)[C@H](C(C)C)NC(=O)[C@H](Cc3ccccc3)NC(=O)[C@H](CCN)NC(=O)[C@@H](CC(C)C)NC(=O)[C@H](CCCN)NC(=O)[C@H](Cc3ccc(OCC(=O)O)cc3)NC(=O)[C@H](Cc3ccc(-c4ccccc4)cc3)NC(=O)[C@H](Cc3ccc(OCC(=O)O)cc3)NC2=O)c1` [Compound 1261] ({CH2CO}-[Dap]Y(Carboxymethyl)D[Phe(3-Me)]Y(Carboxymethyl)[Bip]Y(Carboxymethyl)[Orn][dL][Dab]FVEC[Dab][AEEA][Aun]-OH; thioether N-14), the IC50 is 9.3 nM. The figure for `CC[C@H](C)[C@@H]1NC(=O)[C@H](Cc2ccc(-c3ccccc3)cc2)NC(=O)[C@H](C(C)C)NC(=O)[C@H](Cc2c[nH]c3ccccc23)NC(=O)[C@H](CC(=O)O)NC(=O)[C@H](Cc2ccc(OCC(=O)O)cc2)NC(=O)[C@H](CN)NC(=O)CSC[C@@H](C(=O)NCCOCCOCC(=O)N[C@@H](CCN)C(=O)NCCCCCCCCCCC(=O)O)NC(=O)[C@H](CCCCN)NC(=O)[C@H](C(C)C)NC(=O)[C@H](CC2CCCCC2)NC(=O)[C@H](CCN)NC(=O)[C@@H](CC(C)C)NC(=O)[C@H](CCCN)NC1=O` [Compound 2626] ({CH2CO}-[Dap]Y(Carboxymethyl)DWV[Bip]I[Orn][dL][Dab][Cha]VKC[AEEA][Dab][Aun]-OH; thioether N-14) is 11.9 nM; for `Cc1cccc(C[C@@H]2NC(=O)[C@H](CC(=O)O)NC(=O)[C@H](Cc3ccc(OCC(=O)O)cc3)NC(=O)[C@H](CN)NC(=O)CSC[C@@H](C(=O)NCCOCCOCC(=O)N[C@@H](CCN)C(=O)NCCCCCCCCCCC(=O)O)NC(=O)[C@H](CN)NC(=O)[C@H](C(C)C)NC(=O)[C@H](CC3CCCCC3)NC(=O)[C@H](CCN)NC(=O)[C@@H](CC(C)C)NC(=O)[C@H](CCCN)NC(=O)[C@H](CCCNC(N)=O)NC(=O)[C@H](Cc3ccc(-c4ccccc4)cc3)NC(=O)[C@H](C(C)C)NC2=O)c1` [Compound 2627] ({CH2CO}-[Dap]Y(Carboxymethyl)D[Phe(3-Me)]V[Bip][Cit][Orn][dL][Dab][Cha]V[Dap]C[AEEA][Dab][Aun]-OH; thioether N-14) it is 14.1 nM; for `CC(C)C[C@@H]1NC(=O)[C@H](CCN)NC(=O)[C@@H](CC(C)C)NC(=O)[C@H](CCCN)NC(=O)[C@H](Cc2ccc(O)cc2)NC(=O)[C@H](Cc2ccc(-c3ccccc3)cc2)NC(=O)[C@H](C(C)C)NC(=O)[C@H](Cc2c[nH]c3ccccc23)NC(=O)[C@H](CC(=O)O)NC(=O)[C@H](Cc2ccc(OCC(=O)O)cc2)NC(=O)[C@H](Cc2ccncc2)NC(=O)CSC[C@@H](C(=O)N[C@@H](CCN)C(=O)NCCCCCCCCCCC(=O)O)NC(=O)[C@H]([C@@H](C)O)NC(=O)[C@H](C(C)C)NC1=O` [Compound 2742] ({CH2CO}-[4Pal]Y(Carboxymethyl)DWV[Bip]Y[Orn][dL][Dab]LVTC[Dab][Aun]-OH; thioether N-14) it is 133 nM. The figure for `Cc1cccc(C[C@@H]2NC(=O)[C@H](CC(=O)O)NC(=O)[C@H](Cc3ccc(OCC(=O)O)cc3)NC(=O)[C@H](CCCNC(=N)N)NC(=O)CSC[C@@H](C(=O)N[C@@H](CCN)C(=O)NCCCCCCCCCCC(=O)O)NC(=O)[C@H](CCC(N)=O)NC(=O)[C@H](C(C)C)NC(=O)[C@H](CC3CCCCC3)NC(=O)[C@H](CCN)NC(=O)[C@@H](CC(C)C)NC(=O)[C@H](CCCN)NC(=O)[C@H](Cc3ccc(O)cc3)NC(=O)[C@H](Cc3ccc(-c4ccccc4)cc3)NC(=O)[C@H](CC(C)C)NC2=O)c1` [Compound 3380] ({CH2CO}-RY(Carboxymethyl)D[Phe(3-Me)]L[Bip]Y[Orn][dL][Dab][Cha]VQC[Dab][Aun]-OH; thioether N-14) is 20.6 nM; for `Cc1cccc(C[C@@H]2NC(=O)[C@H](CC(=O)O)NC(=O)[C@H](Cc3ccc(OCC(=O)O)cc3)NC(=O)[C@H](CCCNC(=N)N)NC(=O)CSC[C@@H](C(=O)N[C@@H](CCCN)C(=O)NCCCCCCCCCCC(=O)O)NC(=O)[C@H](CCC(=O)O)NC(=O)[C@H](C(C)C)NC(=O)[C@H](CC3CCCCC3)NC(=O)[C@H](CCN)NC(=O)[C@@H](CC(C)C)NC(=O)[C@H](CCN)NC(=O)[C@H](CCCNC(N)=O)NC(=O)[C@H](Cc3ccc(-c4ccccc4)cc3)NC(=O)[C@H](C(C)C)NC2=O)c1` [Compound 2780] ({CH2CO}-RY(Carboxymethyl)D[Phe(3-Me)]V[Bip][Cit][Dab][dL][Dab][Cha]VEC[Orn][Aun]-OH; thioether N-14) it is 6.7 nM; for `Cc1cccc(C[C@@H]2NC(=O)[C@H](CC(=O)O)NC(=O)[C@H](Cc3ccc(OCC(=O)O)cc3)NC(=O)[C@H](CC3CCC3)NC(=O)CSC[C@@H](C(=O)N[C@@H](CCN)C(=O)NCCCCCCCCCCC(=O)O)NC(=O)[C@H](CO)NC(=O)[C@H](C(C)(C)O)NC(=O)[C@H](CC3CCCCC3)NC(=O)[C@H](CCN)NC(=O)[C@@H](CC(C)C)NC(=O)[C@H](CCCN)NC(=O)[C@H](Cc3ccc(OCC(=O)O)cc3)NC(=O)[C@H](Cc3ccc(-c4ccccc4)cc3)NC(=O)[C@H](Cc3ccc(OCC(=O)O)cc3)NC2=O)c1` [Compound 2233] ({CH2CO}-[Cba]Y(Carboxymethyl)D[Phe(3-Me)]Y(Carboxymethyl)[Bip]Y(Carboxymethyl)[Orn][dL][Dab][Cha][Val(3-OH)]SC[Dab][Aun]-OH; thioether N-14) it is 5 nM. Under `CC(C)C[C@H]1NC(=O)[C@H](CCCN)NC(=O)[C@H](C(C)C)NC(=O)[C@H](Cc2ccc(-c3ccccc3)cc2)NC(=O)[C@H](C(C)C)NC(=O)[C@H](Cc2c[nH]c3ccccc23)NC(=O)[C@H](CC(=O)O)NC(=O)[C@H](Cc2ccc(OCC(=O)O)cc2)NC(=O)[C@H](Cc2ccncc2)NC(=O)CSC[C@@H](C(=O)NCC(=O)NCCOCCOCC(=O)N[C@@H](CCCN)C(=O)NCCCCCCCCCCC(=O)O)NC(=O)[C@H](CCN)NC(=O)[C@H](C(C)C)NC(=O)[C@H](CC2CCCCC2)NC(=O)[C@@H]2C[C@@H](N)CN2C1=O` [Compound 3237] ({CH2CO}-[4Pal]Y(Carboxymethyl)DWV[Bip]V[Orn][dL][Pro(4R-NH2)][Cha]V[Dab]CG[AEEA][Orn][Aun]-OH; thioether N-14) stands 159 nM.

For `CC(C)C[C@@H]1NC(=O)[C@H](Cc2c[nH]c3ccccc23)NC(=O)[C@H](CC(=O)O)NC(=O)[C@H](Cc2ccc(OCC(=O)O)cc2)NC(=O)[C@H](CCCCNC(=N)N)NC(=O)CSC[C@@H](C(=O)NCC(=O)NCCOCCOCC(=O)N[C@@H](CCCN)C(=O)NCCOCCOCC(=O)NCCCCCCCCCCCC(=O)O)NC(=O)[C@H](CO)NC(=O)[C@H](C(C)C)NC(=O)[C@H](CC2CCCCC2)NC(=O)[C@H](CCN)NC(=O)[C@@H](CC(C)C)NC(=O)[C@H](CCCN)NC(=O)[C@H](C(C)C)NC(=O)[C@H](Cc2ccc(-c3ccccc3)cc2)NC1=O` [Compound 3189] ({CH2CO}-[hArg]Y(Carboxymethyl)DWL[Bip]V[Orn][dL][Dab][Cha]VSCG[AEEA][Orn][AEEA][12Ado]-OH; thioether N-14), the IC50 stood at 21.7 nM. Under `Cc1cccc(C[C@@H]2NC(=O)[C@H](CC(=O)O)NC(=O)[C@H](Cc3ccc(OCC(=O)O)cc3)NC(=O)[C@H](CCCC(=O)O)NC(=O)CSC[C@@H](C(=O)N[C@@H](CCN)C(=O)NCCCCCCCCCCCCC(=O)O)NC(=O)[C@H](CO)NC(=O)[C@H](C(C)(C)O)NC(=O)[C@H](CC3CCCCC3)NC(=O)[C@H](CCN)NC(=O)[C@@H](CC(C)C)NC(=O)[C@H](CCCN)NC(=O)[C@H](Cc3ccc(OCC(=O)O)cc3)NC(=O)[C@H](Cc3ccc(-c4ccccc4)cc3)NC(=O)[C@H](Cc3ccc(OCC(=O)O)cc3)NC2=O)c1` [Compound 2259] ({CH2CO}-[Aad]Y(Carboxymethyl)D[Phe(3-Me)]Y(Carboxymethyl)[Bip]Y(Carboxymethyl)[Orn][dL][Dab][Cha][Val(3-OH)]SC[Dab]-{NH(CH2)12COOH}; thioether N-14) stands 17.9 nM; under `Cc1cccc(C[C@@H]2NC(=O)[C@H](CC(=O)O)NC(=O)[C@H](Cc3ccc(OCC(=O)O)cc3)NC(=O)[C@H](CCN)NC(=O)CSC[C@@H](C(=O)N[C@@H](CCN)C(=O)NCCCCCCCCCCC(=O)O)NC(=O)[C@H]([C@@H](C)O)NC(=O)[C@H](C(C)C)NC(=O)[C@H](CC3CCCCC3)NC(=O)[C@H](CCN)NC(=O)[C@@H](CC(C)C)NC(=O)[C@H](CCCN)NC(=O)[C@H](CCCNC(N)=O)NC(=O)[C@H](Cc3ccc(-c4ccccc4)cc3)NC(=O)[C@H](C(C)C)NC2=O)c1` [Compound 2821] ({CH2CO}-[Dab]Y(Carboxymethyl)D[Phe(3-Me)]V[Bip][Cit][Orn][dL][Dab][Cha]VTC[Dab][Aun]-OH; thioether N-14), 10.9 nM.

These data come from patent US20260022142A1, “MACROCYCLIC IMMUNOMODULATORS” (Bristol-Myers Squibb Company, priority 2022, published 2026).
